Drawing on ChEMBL document CHEMBL1150414, “Synthesis, nano-scale assembly, and in vivo anti-thrombotic activity of novel short peptides containing L-Arg and L-Asp or L-Glu” (2008), this text covers Activity for 5 compounds.

Test [1] deals with Rattus norvegicus. As to the kind of experiment: Antithrombotic activity in Wistar rat assessed as reduction of thrombus weight at 5 umol/kg, iv. The format is functional.
Test [2] has as its system Rattus norvegicus. Description: Antithrombotic activity in Wistar rat assessed as thrombus weight at 5 umol/kg, po. The format is functional.
Test [3] relates to Rattus norvegicus. Description: Antithrombotic activity in iv dosed Wistar rat assessed as reduction of thrombus weight. The format is functional, organism-based.
The test system of test [4] is Rattus norvegicus. As to the kind of experiment: Antithrombotic activity in Wistar rat assessed as thrombus weight at 20 mg/kg, po. The format is functional.

SMILES strings stand for the structures. Several values for one entry are separate records, joined by “and”; a condition that tells them apart may be missing. Equal values may be shown once. Starred links: 1 amine or outer side, 2 acyl side, 3 side chain; linkers in the order of their positions; H or OH if unused. Non-standard residues stand in square brackets, D forms with d. Residues, ends and D or L forms follow the SMILES beside them. Groups on a side chain read outwards from the residue. βAsp = O=C(O)[C@H](CC(=O)[*:2])N[*:1]

Turning to `N=C(N)NCCC[C@H](NC(=O)C[C@H](N)C(=O)N[C@@H](CCCNC(=N)N)C(=O)N[C@@H](CC(=O)O)C(=O)O)C(=O)N[C@@H](CC(=O)O)C(=O)O` (H-Asp([Arg-Asp])-Arg-Asp-OH), in test [1], the Activity is 25.12 mg and 15%. Consider `N=C(N)NCCC[C@H](NC(=O)C[C@H](NC(=O)C[C@H](N)C(=O)N[C@@H](CC(=O)N[C@@H](CCCNC(=N)N)C(=O)O)C(=O)O)C(=O)O)C(=O)O` (H-Asp([βAsp-Arg])-[βAsp]-Arg-OH), for which the Activity was 23.2 mg in test [2] and “Dose-dependent effect” in test [3].

Regarding `N=C(N)NCCC[C@H](NC(=O)CC[C@H](N)C(=O)N[C@@H](CCCNC(=N)N)C(=O)N[C@@H](CC(=O)O)C(=O)O)C(=O)N[C@@H](CC(=O)O)C(=O)O` (H-Glu([Arg-Asp])-Arg-Asp-OH), the Activity entry in test [3] was “Dose-dependent effect”.

For `N=C(N)NCCC[C@H](NC(=O)C[C@H](NC(=O)CC[C@H](N)C(=O)N[C@@H](CC(=O)O)C(=O)N[C@@H](CCCNC(=N)N)C(=O)O)C(=O)O)C(=O)O` (H-Glu([βAsp-Arg])-Asp-Arg-OH), in test [3], the Activity result was “Dose-dependent effect”. With `CC(=O)Oc1ccccc1C(=O)O` [ASPIRIN], the Activity in test [4] is on record as 8.5 mg.
